#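 Briefly, cells in 96-well plates were exposed to five compound concentrations for 48 h, and endpoints were estimated by linear interpolation. TGI: total growth inhibition.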
# Legend:
# Assay in all cases: NCI tumour cell line growth inhibition, 48 h
# [1] = system: 786-0 renal
# [2] = system: CAKI-1 renal
# [3] = system: SF-539 CNS
# [4] = system: CCRF-CEM leukemia
# [5] = system: HCC-2998 colon
# [6] = system: SK-MEL-2 melanoma
# [7] = system: HT29 colon
# [8] = system: SK-MEL-5 melanoma
# [9] = system: SF-268 CNS
# [10] = system: A498 renal
# [11] = system: OVCAR-8 ovarian
# [12] = system: NCI-H460 lung
# [13] = system: NCI-H226 lung
# [14] = system: IGROV1 ovarian
# [15] = system: NCI-H522 lung
# [16] = system: HCT-15 colon
# [17] = system: HOP-62 NSCLC
# [18] = system: DMS 273 small cell lung
# [19] = system: UO-31 renal
# [20] = system: SF-295 CNS
# [21] = system: EKVX NSCLC
# [22] = system: DMS 114 small cell lung
# [23] = system: K-562 leukemia
# [24] = system: U251 CNS
# [25] = system: MALME-3M melanoma
# [26] = system: KM20L2 colon
# [27] = system: M14 melanoma
# [28] = system: MOLT-4 leukemia
# [29] = system: SNB-19 CNS
# [30] = system: A549 NSCLC
# [31] = system: UACC-257 melanoma
# [32] = system: COLO 205 colon
# [33] = system: XF 498 CNS
# [34] = system: UACC-62 melanoma
# [35] = system: HCT-116 colon
# [36] = system: SNB-75 CNS
# [37] = system: ACHN renal
# [38] = system: OVCAR-4 ovarian
# [39] = system: RXF-631 renal
# [40] = system: SN12C renal
# [41] = system: SNB-78 CNS
# [42] = system: KM12 colon
# [43] = system: NCI-H23 lung
# [44] = system: HOP-18 NSCLC
# [45] = system: LXFL 529 NSCLC
# [46] = system: M19-MEL melanoma
# [47] = system: RXF 393 renal
# [48] = system: RPMI-8226 leukemia
# [49] = system: SK-MEL-28 melanoma
# [50] = system: HL-60(TB) leukemia
# [51] = system: OVCAR-3 ovarian
# [52] = system: OVCAR-5 ovarian
# [53] = system: SW-620 colon
# [54] = system: SK-OV-3 ovarian
# [55] = system: DLD-1 colon
# [56] = system: LOX IMVI melanoma
# [57] = system: HOP-92 NSCLC
# [58] = system: TK-10 renal
# [59] = system: SR leukemia
# [60] = system: P388/ADR leukemia
# [61] = system: NCI/ADR-RES ovarian
# [62] = system: P388 leukemia
# [63] = system: SN12K1 renal
# [64] = system: MCF7 breast
smiles,measurement,setting,value
COc1ccc(/C(=N/Nc2ccccc2)C(c2ccc(OC)cc2)C2OC(=O)c3ccccc32)cc1 (centres undefined),TGI,[1],> 100 µM
same,TGI,[2],> 100 µM
same,TGI,[3],> 100 µM
same,TGI,[4],> 100 µM
same,TGI,[5],> 100 µM
same,TGI,[6],> 100 µM
same,TGI,[7],> 100 µM
same,TGI,[8],> 100 µM
same,TGI,[9],91.8 µM
same,TGI,[10],> 100 µM
same,TGI,[11],> 100 µM
same,TGI,[12],> 100 µM
same,TGI,[13],65.8 µM
same,TGI,[14],> 100 µM
same,TGI,[15],> 100 µM
same,TGI,[16],> 100 µM
same,TGI,[17],> 100 µM
same,TGI,[18],> 100 µM
same,TGI,[19],> 100 µM
same,TGI,[20],> 100 µM
same,TGI,[21],> 100 µM
same,TGI,[22],> 100 µM
same,TGI,[23],> 100 µM
same,TGI,[24],> 100 µM
same,TGI,[25],> 100 µM
same,TGI,[26],> 100 µM
same,TGI,[27],> 100 µM
same,TGI,[28],> 100 µM
same,TGI,[29],> 100 µM
same,TGI,[30],> 100 µM
same,TGI,[31],> 100 µM
same,TGI,[32],> 100 µM
same,TGI,[33],> 100 µM
same,TGI,[34],> 100 µM
same,TGI,[35],> 100 µM
same,TGI,[36],> 100 µM
same,TGI,[37],> 100 µM
same,TGI,[38],> 100 µM
same,TGI,[39],> 100 µM
same,TGI,[40],> 100 µM
CC(=O)OC1(C)C(=O)OC1(C)C(C)=O (centres undefined),TGI,[1],> 100 µM
same,TGI,[2],> 100 µM
same,TGI,[3],> 100 µM
same,TGI,[4],> 100 µM
same,TGI,[41],> 100 µM
same,TGI,[5],> 100 µM
same,TGI,[6],> 100 µM
same,TGI,[42],> 100 µM
same,TGI,[7],> 100 µM
same,TGI,[43],> 100 µM
same,TGI,[8],> 100 µM
same,TGI,[9],> 100 µM
same,TGI,[10],> 100 µM
same,TGI,[44],> 100 µM
same,TGI,[11],> 100 µM
same,TGI,[13],> 100 µM
same,TGI,[14],> 100 µM
same,TGI,[15],> 100 µM
same,TGI,[45],> 100 µM
same,TGI,[16],> 100 µM
same,TGI,[46],> 100 µM
same,TGI,[47],> 100 µM
same,TGI,[18],> 100 µM
same,TGI,[19],> 100 µM
same,TGI,[48],> 100 µM
same,TGI,[20],> 100 µM
same,TGI,[49],> 100 µM
same,TGI,[50],> 100 µM
same,TGI,[21],> 100 µM
same,TGI,[51],> 100 µM
same,TGI,[52],> 100 µM
same,TGI,[22],> 100 µM
same,TGI,[23],> 100 µM
same,TGI,[24],> 100 µM
same,TGI,[25],> 100 µM
same,TGI,[26],> 100 µM
same,TGI,[27],> 100 µM
same,TGI,[53],> 100 µM
same,TGI,[28],> 100 µM
same,TGI,[29],> 100 µM
same,TGI,[30],> 100 µM
same,TGI,[31],> 100 µM
same,TGI,[32],> 100 µM
same,TGI,[34],> 100 µM
same,TGI,[35],> 100 µM
same,TGI,[54],> 100 µM
same,TGI,[55],> 100 µM
same,TGI,[56],> 100 µM
same,TGI,[36],> 100 µM
same,TGI,[37],> 100 µM
same,TGI,[57],> 100 µM
same,TGI,[38],> 100 µM
same,TGI,[58],> 100 µM
same,TGI,[39],> 100 µM
same,TGI,[40],> 100 µM
CCCCOC(=O)NC(=O)c1cn(CCSCCOC(=O)NCCCCCCNC(=O)OCCSCCn2cc(C(=O)NC(=O)OCCCC)c(=O)[nH]c2=O)c(=O)[nH]c1=O,TGI,[1],> 100 µM
same,TGI,[3],> 100 µM
same,TGI,[59],> 100 µM
same,TGI,[41],> 100 µM
same,TGI,[5],> 100 µM
same,TGI,[6],> 100 µM
same,TGI,[42],> 100 µM
same,TGI,[7],> 100 µM
same,TGI,[43],94.5 µM
same,TGI,[8],> 100 µM
same,TGI,[9],> 100 µM
same,TGI,[10],64.7 µM
same,TGI,[44],> 100 µM
same,TGI,[12],> 100 µM
same,TGI,[14],> 100 µM
same,TGI,[15],> 100 µM
same,TGI,[45],> 100 µM
same,TGI,[16],> 100 µM
same,TGI,[46],> 100 µM
same,TGI,[17],> 100 µM
same,TGI,[47],> 100 µM
same,TGI,[18],> 100 µM
same,TGI,[19],> 100 µM
same,TGI,[48],> 100 µM
same,TGI,[20],> 100 µM
same,TGI,[49],> 100 µM
same,TGI,[50],> 100 µM
same,TGI,[21],> 100 µM
same,TGI,[51],> 100 µM
same,TGI,[52],> 100 µM
same,TGI,[22],> 100 µM
same,TGI,[23],> 100 µM
same,TGI,[24],74.1 µM
same,TGI,[25],76.6 µM
same,TGI,[26],> 100 µM
same,TGI,[27],> 100 µM
same,TGI,[29],> 100 µM
same,TGI,[30],> 100 µM
same,TGI,[31],> 100 µM
same,TGI,[32],> 100 µM
same,TGI,[34],> 100 µM
same,TGI,[35],> 100 µM
same,TGI,[54],> 100 µM
same,TGI,[55],> 100 µM
same,TGI,[56],> 100 µM
same,TGI,[36],> 100 µM
same,TGI,[37],> 100 µM
same,TGI,[57],71.8 µM
same,TGI,[38],> 100 µM
same,TGI,[58],92.4 µM
same,TGI,[39],> 100 µM
same,TGI,[40],> 100 µM
C=C1C(=O)OCC2C(C(=O)O)=CC3C(C)C(C)=CC123 (centres undefined),TGI,[2],62.6 µM
same,TGI,[3],23.9 µM
same,TGI,[4],42 µM
same,TGI,[41],117 µM
same,TGI,[5],29 µM
same,TGI,[6],15.1 µM
same,TGI,[42],31.2 µM
same,TGI,[7],44.4 µM
same,TGI,[43],25.7 µM
same,TGI,[8],27.3 µM
same,TGI,[9],32.8 µM
same,TGI,[10],18.2 µM
same,TGI,[44],34.2 µM
same,TGI,[11],73.5 µM
same,TGI,[12],29.2 µM
same,TGI,[13],52.1 µM
same,TGI,[14],36.1 µM
same,TGI,[15],8.18 µM
same,TGI,[60],21.9 µM
same,TGI,[16],43.8 µM
same,TGI,[46],54.6 µM
same,TGI,[17],31.4 µM
same,TGI,[61],27.3 µM
same,TGI,[47],17.7 µM
same,TGI,[18],59.6 µM
same,TGI,[19],39.5 µM
same,TGI,[48],26.8 µM
same,TGI,[20],49.1 µM
same,TGI,[49],7.64 µM
same,TGI,[50],26 µM
same,TGI,[21],62.6 µM
same,TGI,[51],31.3 µM
same,TGI,[52],66.3 µM
same,TGI,[22],33.8 µM
same,TGI,[23],72.4 µM
same,TGI,[24],38.6 µM
same,TGI,[25],17.6 µM
same,TGI,[62],12.7 µM
same,TGI,[26],51.1 µM
same,TGI,[63],29.6 µM
same,TGI,[53],40.9 µM
same,TGI,[28],29.6 µM
same,TGI,[29],40.2 µM
same,TGI,[30],77.1 µM
same,TGI,[31],46 µM
same,TGI,[32],32.9 µM
same,TGI,[33],24.8 µM
same,TGI,[34],11.8 µM
same,TGI,[35],35.5 µM
same,TGI,[54],79.5 µM
same,TGI,[55],45.7 µM
same,TGI,[56],27.9 µM
same,TGI,[36],44.1 µM
same,TGI,[57],25.5 µM
same,TGI,[38],20.6 µM
same,TGI,[64],23.9 µM
same,TGI,[40],23.6 µM
